From publication PMC9851200, “Multiparameter phenotypic screening for endogenous TFEB and TFE3 translocation identifies novel chemical series modulating lysosome function” (Autophagy, 2022) come the findings set out here.

Structures are written as SMILES.

Data set [1] concerns SH-SY5Y cells. The data set can be described thus: Chemotype enrichment analysis of PKIS2 primary screen hit categories. The settings on record: PKIS2 primary screening, hit category.
In data set [2] the test system is SH-SY5Y cells. Kind of data set: Nuclear count from microscopy images (cellular growth and toxicity). Note: reference of the scale not given here. The settings on record: PKIS2 primary screening.
For data set [3], the system named is SH-SY5Y cells. As to conditions: PKIS2 primary screening; for DQ Intensity: DQ Red BSA intensity; for DQ Spot: DQ Red BSA spot count.
Text: The PKIS2 Library was supplied by The Structural Genomics Consortium at the University of North Carolina at Chapel Hill.
The subject of the next data set is endogenous TFEB. The data set can be described thus: TFEB nuclear translocation, immunocytochemistry high-content imaging. The format is cell-based. As to conditions: PKIS2 primary screening.
Data set [4] concerns SH-SY5Y cells. Kind of data set: AK (adenylate kinase) release ToxiLight cytotoxicity assay. Note: reference of the scale not given here. As to conditions: PKIS2 primary screening.
The next data set deals with endogenous TFE3. Kind of data set: TFE3 nuclear translocation, immunocytochemistry high-content imaging. As to conditions: PKIS2 primary screening. The format is cell-based.
Throughout, for DQ Intensity: reference of the scale not given here.
Throughout, for DQ Spot: reference of the scale not given here.

Turning to `CS(=O)(=O)CCNCc1ccc(-c2ccc3ncnc(Nc4ccc(OCc5ccccc5)c(Cl)c4)c3c2)o1.Cl` [UNC10112604A], the Outcome entry in the data set with SH-SY5Y cells [1] is “TFE3”. Moreover, in the data set on SH-SY5Y cells [2], the “Nuclear Count” value was found to be 96.24. In the data set on SH-SY5Y cells [3], the “DQ Intensity” value worked out at 133.51 and the “DQ Spot” value is listed as 89.48. The molecule also had a TFEB % in the data set with endogenous TFEB of 8.74%. The AK in the data set with SH-SY5Y cells [4] is recorded as 78.47. For the same molecule, in the data set on endogenous TFE3, the TFE3 % was 24.66%.

Take `Cl.Nc1ncnc2occ(-c3ccc(NC(=O)Nc4cc(C(F)(F)F)ccc4F)cc3)c12` [UNC10112792A]: the Outcome result with SH-SY5Y cells [1] is on record as “LYSO TOXIC”. For the same molecule, the “Nuclear Count” value in the data set with SH-SY5Y cells [2] came out at 92.62. In addition, in the data set with SH-SY5Y cells [3], the “DQ Intensity” value is listed as 73.11 and the “DQ Spot” value was determined as 78.83. For the same molecule, the TFEB % with endogenous TFEB turned out to be 5.26%. Also, in the data set with SH-SY5Y cells [4], the AK is listed as 84.72. Further, in the data set on endogenous TFE3, the TFE3 % stood at 17.19%.

As for `C=CC(=O)Nc1cc2c(Nc3ccc(F)c(Cl)c3)ncnc2cc1OCCCN1CCOCC1` [UNC10126563B], in the data set with SH-SY5Y cells [1], the Outcome entry was “TOXIC”. Also, the “Nuclear Count” value in the data set with SH-SY5Y cells [2] is reported as 114.57. For the same molecule, in the data set with SH-SY5Y cells [3], the “DQ Intensity” value turned out to be 67.23 and the “DQ Spot” value stood at 74.22. This molecule gave a TFEB % with endogenous TFEB of 7.79%. Besides, the AK in the data set on SH-SY5Y cells [4] is on record as 149.52. In the data set on endogenous TFE3, the TFE3 % was found to be 16.19%.

For `Cc1ccn2nc(-c3ccc(F)cc3)c(-c3ccncc3)c2c1.Cl` [UNC10224989A], the Outcome entry in the data set on SH-SY5Y cells [1] is “TFEB”. Also, the “Nuclear Count” value in the data set on SH-SY5Y cells [2] was found to be 114.75. Moreover, in the data set on SH-SY5Y cells [3], the “DQ Intensity” value came to 96.51 and the “DQ Spot” value is 106.96. Further, the TFEB % in the data set with endogenous TFEB is recorded as 29.24%. The AK in the data set with SH-SY5Y cells [4] is recorded as 121.47. This molecule also had a TFE3 % in the data set on endogenous TFE3 of 6.03%.

For the molecule `CS(=O)(=O)c1ccc(-c2nc3n(c2-c2ccncc2)CCC3)cc1` [UNC10224995A], the Outcome entry in the data set on SH-SY5Y cells [1] was “TOXIC”. In addition, the “Nuclear Count” value in the data set with SH-SY5Y cells [2] is 122.53. Also, in the data set with SH-SY5Y cells [3], the “DQ Intensity” value came out at 130.38 and the “DQ Spot” value is 113.84. Moreover, the TFEB % with endogenous TFEB was 6.71%. This molecule also displayed an AK with SH-SY5Y cells [4] of 200.60. Besides, in the data set on endogenous TFE3, the TFE3 % worked out at 13.24%.

With `Cl.c1ccc(-c2ccc3c(Nc4ccc5[nH]ncc5c4)ccnc3c2)nc1` [UNC10225007A], in the data set with SH-SY5Y cells [1], the Outcome result is on record as “LYSO TOXIC”. Moreover, the “Nuclear Count” value in the data set with SH-SY5Y cells [2] amounted to 105.78. Also, in the data set with SH-SY5Y cells [3], the “DQ Intensity” value was determined as 77.57 and the “DQ Spot” value turned out to be 57.65. Also, the TFEB % in the data set on endogenous TFEB is recorded as 7.66%. Further, the AK in the data set with SH-SY5Y cells [4] worked out at 108.57. In the data set with endogenous TFE3, this molecule displayed a TFE3 % of 16.03%.

As for `Nc1ncc(-c2ccc3nccc(-c4ccncc4)c3c2)cc1S(=O)(=O)N1CCOCC1` [UNC10225011A], the Outcome result in the data set on SH-SY5Y cells [1] was “DQ Only”. The “Nuclear Count” value in the data set with SH-SY5Y cells [2] is listed as 96.85. In the data set on SH-SY5Y cells [3], the “DQ Intensity” value is on record as 150.72 and the “DQ Spot” value is recorded as 94.12. The TFEB % in the data set on endogenous TFEB is 0.58%. The AK with SH-SY5Y cells [4] amounted to 92.69. Besides, the TFE3 % in the data set on endogenous TFE3 is 1.48%.

On to `COc1cc2nccc(Nc3ccc(NC(=O)c4ccc(C)cc4)c(O)c3)c2cc1OC.Cl` [UNC10225013A], for which, in the data set with SH-SY5Y cells [1], the Outcome result is reported as “LYSO TOXIC”. For the same molecule, the “Nuclear Count” value with SH-SY5Y cells [2] stood at 63.58. For the same molecule, in the data set on SH-SY5Y cells [3], the “DQ Intensity” value is listed as 86.65 and the “DQ Spot” value is recorded as 65.59. Also, the TFEB % with endogenous TFEB amounted to 33.18%. The AK in the data set on SH-SY5Y cells [4] came out at 100.53. The TFE3 % in the data set on endogenous TFE3 was found to be 46.99%.

As for `Cl.Cl.NCC(C(=O)Nc1cc(Br)c(-c2ccnc3[nH]ccc23)s1)c1ccccc1` (stereo not drawn) [UNC10225027A], the Outcome entry in the data set on SH-SY5Y cells [1] is recorded as “TFE3”. Also, the “Nuclear Count” value in the data set with SH-SY5Y cells [2] came to 108.23. Moreover, in the data set with SH-SY5Y cells [3], the “DQ Intensity” value is listed as 115.17 and the “DQ Spot” value was found to be 95.94. Further, the TFEB % in the data set with endogenous TFEB came out at 6.97%. For the same molecule, the AK in the data set with SH-SY5Y cells [4] stood at 80.33. The TFE3 % in the data set on endogenous TFE3 is listed as 26.86%.

On to `Cl.Cl.NC[C@H](CC1CCCCC1)NC(=O)c1ccc(-c2ccnc3[nH]ccc23)s1` [UNC10225041A], for which the Outcome result with SH-SY5Y cells [1] is “TFEB + DQ Int”. In the data set with SH-SY5Y cells [2], the “Nuclear Count” value came out at 83.64. In the data set on SH-SY5Y cells [3], the “DQ Intensity” value was found to be 229.52 and the “DQ Spot” value was 72.59. Also, in the data set with endogenous TFEB, the TFEB % stood at 14.98%. In the data set with SH-SY5Y cells [4], this molecule gave an AK of 135.71. In addition, in the data set on endogenous TFE3, the TFE3 % was 16.73%.

Turning to `c1ccc(-c2n[nH]cc2Nc2ccnc3ccccc23)nc1` [UNC10225048A], in the data set on SH-SY5Y cells [1], the Outcome result is reported as “LYSO TOXIC”. Also, the “Nuclear Count” value with SH-SY5Y cells [2] is listed as 152.96. In addition, in the data set on SH-SY5Y cells [3], the “DQ Intensity” value came out at 106.75 and the “DQ Spot” value was determined as 56.59. In the data set with endogenous TFEB, this molecule gave a TFEB % of 2.79%. This molecule returned an AK with SH-SY5Y cells [4] of 99.18. In the data set on endogenous TFE3, this molecule had a TFE3 % of 9.11%.

As to `COc1cc(Nc2ccnc3cc(-c4ccncc4)ccc23)cc(OC)c1OC.Cl` [UNC10225049A], the Outcome entry with SH-SY5Y cells [1] is recorded as “DQ Only”. Also, in the data set on SH-SY5Y cells [2], the “Nuclear Count” value is 54.75. Besides, in the data set with SH-SY5Y cells [3], the “DQ Intensity” value was 164.74 and the “DQ Spot” value is recorded as 83.88. Besides, the TFEB % in the data set on endogenous TFEB came to 12.84%. In addition, the AK with SH-SY5Y cells [4] is recorded as 108.07. Besides, the TFE3 % with endogenous TFE3 stood at 16.25%.
